Source: US20050209278A1, “Piperidinyl- and piperazinyl-sulfonylmethyl hydroxamic acids and their use as protease inhibitors” (priority 2002, published 2005)

Legend:
MMP-9 = target: T1, MMP-9 (Homo sapiens, UniProt P14780); experiment: In vitro MMP inhibition, Ki determination (fluorogenic substrate II); assay type: biochemical; settings: value not in parenthesis
T1 construct: made in house; host or cells: MMP-9-transfected HT1080 cells (spent media)
Summary of the method: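 HT1080-derived MMP-9, activated with APMA, trypsin or MMP-3, incubated 1 hr at room temperature with inhibitor and 4 μM fluorogenic substrate II (at or below Km) in pH 7.5 Tris/NaCl/CaCl2 buffer; ex 330/em 420 nm. Ki from Morrison-equation regression, without substrate correction.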

MMP-13 = target: T2, MMP-13 (Homo sapiens, UniProt P45452); experiment: In vitro MMP inhibition, IC50 determination (fluorogenic substrate I); assay type: biochemical; settings: value in parenthesis; read-out: MMP-13 (IC-50)
T2 construct: made in house; host or cells: baculovirus / insect cells
Experimental: Several hydroxamic acids and salts thereof were analyzed in in vitro assays to determine their ability to inhibit the MMP cleavage of peptide substrates. […] and IC50 constants were calculated from the assayed hydroxamic acid-MMP interactions.
Human recombinant MMP-1, MMP-2, MMP-9, MMP-13, and MMP-14 were used in this assay. All enzymes were prepared in Assignee's laboratories following usual laboratory procedures. Protocols for the preparation and use of these enzymes are available in the scientific literature. See, e.g., Enzyme Nomenclature (Academic Press, San Diego, Calif., 1992) (and the citations therein). See also, Freije et al., “Molecular cloning and expression of collagenase-3, a novel human matrix metalloproteinase produced by breast carcinomas,” J Biol. Chem., 269(24), 16766-16773 (1994).
The MMP-13 was obtained as a proenzyme from a full-length cDNA clone using baculovirus, as described by V. A. Luckow, “Insect Cell Expression Technology,” Protein Engineering: Principles and Practice, pp. 183-218 (edited by J. L. Cleland et al., Wiley-Liss, Inc., 1996). The expressed proenzyme was first purified over a heparin agarose column, and then over a chelating zinc chloride column. The proenzyme was then activated by APMA for use in the assay. Further details on baculovirus expression systems may be found in, for example, Luckow et al., J. Virol., 67, 4566-79 (1993). See also, O'Reilly et al, Baculovirus Expression Vectors: A Laboratory Manual (W.H. Freeman and Co., New York, N.Y., 1992). See also, King et al., The Baculovirus Expression System: A Laboratory Guide (Chapman & Hall, London, England, 1992).
All MMPs were activated using 4-aminophenylmercuric acetate (“APMA”, Sigma Chemical, St. Louis, Mo.) or trypsin. MMP-9 also was activated using human recombinant MMP-3 (purified in Assignee's laboratory following standard cloning and purification techniques).
Two fluorogenic, methoxycoumarin-containing polypeptide substrates were used in the MMP inhibition assays: [drawing 427] Here, “Dpa” is 3-(2,4-dinitrophenyl)-L-2,3-diaminopropionyl group, and “MCA” is 7-methoxycoumarin-4-yl acetyl. Substrate (I) was purchased from Baychem (Redwood City, Calif.), and substrate II was prepared Assignee's laboratory. Substrate I was used in the IC50 determination assays, while substrate II was used in the Ki determination assays. In the absence of MMP inhibitory activity, either substrate is cleaved at the Gly-Leu peptide bond. This cleavage separates the highly fluorogenic peptide from the 2,4-dinitrophenyl quencher, thus resulting in increase of fluorescent intensity.
The stock solutions of the assayed hydroxamic acids (or salts thereof) were prepared in 1% dimethyl sulfoxide (DMSO). These stock solutions were diluted in Buffer A (100 mM Tris-HCl, 100 mM NaCl, 10 mM CaCl2, 0.05% polyoxyethylene 23 lauryl ether, pH 7.5) to obtain solutions with different hydroxamic acid concentrations, i.e., assay solutions with different concentrations of the assayed MMP inhibitory compound. The experiment controls contained the same amount of Buffer A/DMSO as the assayed sample, but contained no hydroxamic acid (or salt thereof).
The assays from which the IC50 determinations were made were performed as follows. The MMPs were activated with either trypsin or APMA (4-aminophenylmercuric acetate, Sigma Chemical, St. Louis, Mo.). The assayed hydroxamic acid samples were incubated in Microfluor™ White Plates (Dynatech, Chantilly, Va.) and analyzed on a Perkin Elmer L550 plate reader (Norwalk, Conn.). The excitation wavelength was 328 nm, and the emission wavelength—415 nm. All samples (assayed hydroxamic acids and controls) were incubated in separate plates at room temperature in the presence of 4 μM of MMP substrate (I). As stated in the previous paragraph, samples containing varying concentrations of the same assayed hydroxamic acid were prepared. Inhibition was measured as a reduction in fluorescent intensity as a function of MMP inhibitor concentration. […]

T1 sequence (P14780 107-707 limits assumed): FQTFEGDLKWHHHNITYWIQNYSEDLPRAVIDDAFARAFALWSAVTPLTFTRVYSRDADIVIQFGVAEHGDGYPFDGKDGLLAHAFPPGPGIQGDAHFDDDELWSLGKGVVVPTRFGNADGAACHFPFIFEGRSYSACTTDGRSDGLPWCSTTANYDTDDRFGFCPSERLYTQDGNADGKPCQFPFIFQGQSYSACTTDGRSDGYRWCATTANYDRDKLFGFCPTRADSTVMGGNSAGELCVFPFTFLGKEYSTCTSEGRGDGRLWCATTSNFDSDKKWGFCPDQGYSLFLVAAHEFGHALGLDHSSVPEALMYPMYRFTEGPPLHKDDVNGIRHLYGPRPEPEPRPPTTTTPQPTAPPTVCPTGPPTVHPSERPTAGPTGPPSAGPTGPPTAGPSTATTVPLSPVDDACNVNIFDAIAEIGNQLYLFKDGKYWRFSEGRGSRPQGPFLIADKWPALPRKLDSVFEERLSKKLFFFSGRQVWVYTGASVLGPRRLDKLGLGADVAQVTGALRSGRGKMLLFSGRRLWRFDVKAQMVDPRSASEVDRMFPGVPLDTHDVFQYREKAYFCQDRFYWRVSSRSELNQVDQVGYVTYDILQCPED

Question: Which Ki (MMP-9) does the source give for `CCCC(C)Cc1ccc(N2CCN(S(=O)(=O)C3(C(=O)NO)CCN(CCOC)CC3)CC2)cc1` (stereo not drawn) [Example 189] here?
Answer: The Ki was 34.7 nM.

Question: What about the IC50 (MMP-13) of the same molecule?
Answer: The IC50 was 1 nM.

Question: For `CCCCCc1ccc(N2CCN(S(=O)(=O)C3(C(=O)NO)CCOCC3)CC2)nn1` [Example 197], which Ki (MMP-9) is on record?
Answer: The Ki was 20.2 nM.

Question: What about the IC50 (MMP-13) of the same molecule?
Answer: The IC50 was 35.1 nM.

Question: With `COCCN1CCC(C(=O)NO)(S(=O)(=O)N2CCN(c3nc4ccccc4o3)CC2)CC1` [Example 196] as the molecule, how does the Ki (MMP-9) read?
Answer: The Ki was 79.6 nM.

Question: And the IC50 (MMP-13)?
Answer: Its IC50 is 177 nM.

Question: With `CCc1ccc(N2CCN(S(=O)(=O)C3(C(=O)NO)CCN(CCOC)CC3)CC2)cc1` [Example 193] as the molecule, how does the Ki (MMP-9) read?
Answer: The Ki was 3.11 nM.

Question: And the IC50 (MMP-13)?
Answer: Its IC50 is 1.9 nM.

Question: Which results are given for `COCCN1CCC(C(=O)NO)(S(=O)(=O)N2CCN(c3ccc(CC(C)C)cc3)CC2)CC1` [Example 192]?
Answer: Ki (MMP-9): 9.11 nM; IC50 (MMP-13): 3.6 nM

Question: For `O=C(NO)C1(S(=O)(=O)N2CCN(c3ccc(OC(F)(F)F)cc3)CC2)CCN(C2CC2)CC1` [Example 203], which Ki (MMP-9) is on record?
Answer: The Ki was 2.5 nM.

Question: What about the IC50 (MMP-13) of the same molecule?
Answer: The IC50 was 0.5 nM.

Question: What does the source list for `CCCCCCc1ccc(N2CCN(S(=O)(=O)C3(C(=O)NO)CCN(CCOC)CC3)CC2)cc1` [Example 199]?
Answer: Ki (MMP-9): 0.892 nM; IC50 (MMP-13): 0.2 nM

Question: `COCCN1CCC(C(=O)NO)(S(=O)(=O)N2CCN(c3ccccc3)CC2)CC1` [Example 195] was tested. Which Ki (MMP-9) did it give?
Answer: The Ki was 23.2 nM.

Question: What about the IC50 (MMP-13) of the same molecule?
Answer: Its IC50 is 11.5 nM.

Question: Which Ki (MMP-9) does the source give for `COCCN1CCC(C(=O)NO)(S(=O)(=O)N2CCN(c3ccc(Br)cc3)CC2)CC1` [Example 201] here?
Answer: Its Ki is 3.48 nM.

Question: What about the IC50 (MMP-13) of the same molecule?
Answer: Its IC50 is 0.8 nM.

Question: What does the source list for `CCCc1ccc(N2CCN(S(=O)(=O)C3(C(=O)NO)CCN(CCOC)CC3)CC2)cc1` [Example 200]?
Answer: Ki (MMP-9): 0.28 nM; IC50 (MMP-13): 0.6 nM

Question: For `O=C(NO)C1(S(=O)(=O)N2CCN(c3ccc(Cl)nn3)CC2)CCOCC1` [Example 198], which Ki (MMP-9) is on record?
Answer: Its Ki is 252 nM.

Question: And the IC50 (MMP-13)?
Answer: The IC50 was 285 nM.

Question: How did the Ki (MMP-9) turn out when `COCCN1CCC(C(=O)NO)(S(=O)(=O)N2CCN(c3ccc(C)cc3)CC2)CC1` [Example 194] was run?
Answer: The Ki was 7.19 nM.

Question: And the IC50 (MMP-13)?
Answer: The IC50 was 3.1 nM.

Question: Which Ki (MMP-9) does the source give for `COCCN1CCC(C(=O)NO)(S(=O)(=O)N2CCN(c3ccc(CCCCC(C)C)cc3)CC2)CC1` [Example 191] here?
Answer: The Ki was 4.21 nM.

Question: What about the IC50 (MMP-13) of the same molecule?
Answer: Its IC50 is under 1 nM.

Question: How did the Ki (MMP-9) turn out when `CCC(C)Cc1ccc(N2CCN(S(=O)(=O)C3(C(=O)NO)CCN(CCOC)CC3)CC2)cc1` (stereo not drawn) [Example 190] was run?
Answer: The Ki was 3.76 nM.

Question: What about the IC50 (MMP-13) of the same molecule?
Answer: The IC50 was 2.4 nM.

Question: What does the source list for `COCCN1CCC(C(=O)NO)(S(=O)(=O)N2CCN(c3ccc(OC(F)(F)F)cc3)CC2)CC1` [Example 202]?
Answer: Ki (MMP-9): 4.67 nM; IC50 (MMP-13): 0.2 nM
